Source: PubChem BioAssay (NCI)
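Five concentrations, 48 hours, 96-well plates. TGI denotes the concentration required for complete inhibition of growth.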

Experiments:
Assay in all cases: NCI-60 cell line screen, 48 h
[1] = test system: 786-0 renal
[2] = test system: CAKI-1 renal
[3] = test system: CCRF-CEM leukemia
[4] = test system: EKVX NSCLC
[5] = test system: HCC-2998 colon
[6] = test system: HOP-62 NSCLC
[7] = test system: IGROV1 ovarian
[8] = test system: MALME-3M melanoma
[9] = test system: MCF7 breast
[10] = test system: MDA-MB-231 breast
[11] = test system: NCI-H522 lung
[12] = test system: RPMI-8226 leukemia
[13] = test system: RXF 393 renal
[14] = test system: SF-268 CNS
[15] = test system: SN12C renal
[16] = test system: SNB-75 CNS
[17] = test system: SR leukemia
[18] = test system: OVCAR-5 ovarian
[19] = test system: BT-549 breast

SMILES | TGI [1] [µM] | TGI [2] [µM] | TGI [3] [µM] | TGI [4] [µM] | TGI [5] [µM] | TGI [6] [µM] | TGI [7] [µM] | TGI [8] [µM] | TGI [9] [µM] | TGI [10] [µM] | TGI [11] [µM] | TGI [12] [µM] | TGI [13] [µM] | TGI [14] [µM] | TGI [15] [µM] | TGI [16] [µM] | TGI [17] [µM] | TGI [18] [µM] | TGI [19] [µM]
OC(CC(O)(C(F)(F)F)C(F)(F)F)C(O)c1ccco1 (configuration not stated) | > 10 | > 10 | > 10 | > 10 | > 10 | > 10 | > 10 | > 10 | > 10 | > 10 | > 10 | > 10 | > 10 | > 10 | > 10 | > 10 | > 10 |  | 
O=C(N/N=C(\c1nc2ccc(Cl)cc2[nH]c1=O)C(O)c1ccccc1Cl)c1ccncc1 (configuration not stated) | > 100 | > 100 | > 100 | > 100 | > 100 |  | > 100 | > 100 |  |  | > 100 |  | > 100 | > 100 |  | > 100 |  | > 100 | 
COC(=O)[C@@H]1OC(C)(c2ccccc2)O[C@H]1C(=O)OC | > 100 | > 100 | > 100 | > 100 | > 100 | > 100 | > 100 | > 100 | > 100 | > 100 | > 100 | > 100 | > 100 | > 100 |  | > 100 | > 100 | > 100 | 
COc1ccc(C2=NN(C(=O)c3cccnc3)C(O)(c3cc(F)c(Cl)cc3Cl)C2)cc1OC (configuration not stated) | 62.2 | > 100 | > 100 | 73.6 |  | 47.7 | 30.5 | 59.1 |  | 37.9 | 34.9 | 73 | 33.5 | 39.8 | 34.7 | 62.9 | 53.7 | > 100 | 41.5
COC(=O)C1(C(=O)OC)CC2=C(S(=O)(=O)c3ccccc3)C[C@H](C#N)[C@H]2C1 | > 100 | > 100 | > 100 | > 100 |  | > 100 | > 100 | > 100 | > 100 | > 100 | > 100 |  | > 100 | > 100 | > 100 | > 100 |  | > 100 | 
O=C(/C=C/c1ccc2c(c1)OCO2)CC(=O)/C=C/c1ccc2c(c1)OCO2 | > 100 | > 100 | > 100 | > 100 | > 100 | > 100 | 68.2 | > 100 | > 100 | > 100 | > 100 | > 100 | > 100 |  | > 100 | > 100 | 79.8 | > 100 | 
CCO/C=C(\C(=O)OC)S(=O)(=O)c1ccc(C)cc1 | > 100 |  | > 100 | > 100 | > 100 | > 100 | > 100 | > 100 | > 100 | > 100 | > 100 | > 100 | > 100 | > 100 | > 100 | > 100 | > 100 | > 100 | 
